Entries after “also recorded” stand apart in the source; their conditions may differ.

This is an account of results in patent publication US11518805B2, “Binding inhibitor between TCTP dimer type IgE-dependent histamine releasing factor and receptor thereof, and use thereof” (EWHA UNIVERSITY—INDUSTRY COLLABORATION FOUNDATION, priority 2014, dated 2022).

Assay [1] concerns BEAS-2B cells. In words: IL-8 secretion by f-TCTP, Δ-dTCTP and Del-N11dTCTP in BEAS-2B cells. The class given is cell-based. The conditions noted are these: protein at 1, 5 or 10 μg/ml, 24 hours, ELISA. The procedure: (§1) To investigate the IL-8 and GM-CSF secretory activity of f-TCTP, Δ-dTCTP, and Del-N11dTCTP in BEAS-2B cells, the present inventors compared the activity of f-TCTP, Δ-dTCTP, and Del-N11dTCTP by measuring the secretion of IL-8 in BEAS-2B cells.
(§2) Particularly, BEAS-2B cells were cultured in a 48-well plate until the confluency reached to 70%. Then, the cells were washed with 1% penicillin-streptomycin/BEBM (Clonetics) twice. Each recombinant protein of the Δ-dTCTP separated in Example 1 of the invention, and the f-TCTP and Del-N11dTCTP constructed by the method described in Korean Patent Application No. 2006-0007663 was added thereto at the concentration of 1 μg/ ? , 5 μg/ ? , or 10 μg/ ? 24 hours later, the supernatant was obtained and the released IL-8 and GM-CSF were quantified by ELISA.

For assay [2], the system named is BEAS-2B cells. In words: GM-CSF secretion by f-TCTP, Δ-dTCTP and Del-N11dTCTP in BEAS-2B cells. The class given is cell-based. Particulars: protein at 1, 5 or 10 μg/ml, 24 hours, ELISA. The procedure:
as §1, §2
In general terms: In an ELISA, binding on a coated surface is turned into a signal by an enzyme label.

The subject of assay [3] is dTBP2 (dTCTP binding peptide 2). Description: Affinity of TCTP proteins to immobilized biotinylated dTBP2 (ELISA). Particulars: biotinylated dTBP2 0.01-10 μm on streptavidin plate; protein 0.2 μg/ml; ELISA 450/570 nm. The procedure:
To investigate the affinity to dTBP2 of f-TCTP, Δ-dTCTP, and Del-N11dTCTP of the present invention, biotin was conjugated to the COOH-terminus of dTBP2 known to bind to HRF, followed by purification. The purified protein was immobilized in the plastic well coated with streptavidin, to which f-TCTP, Δ-dTCTP, and Del-N11dTCTP were added. Then, the binding strength of each protein was investigated.
Particularly, 50 ? of the biotinylated dTBTP2 dissolved in a buffer (TBS [25 mM Tris, 150 mM NaCl, pH 7.2], 0.1% BSA, 0.05% Tween-20) at different concentrations of 0.01, 0.1, 1, and 10 μm was added to Reacti-Bind Streptavidin Coated Polystyrene Plates (PIERCE), followed by reaction at room temperature for 2 hours. The plate was washed with a washing buffer three times. Each of f-TCTP, Δ-dTCTP, and Del-N11dTCTP was dissolved in TBS at the concentration of 0.2 μg/ ? . 60 ? of the mixture was added to each well of the plate, followed by reaction for 1 hour. The plate was washed with a washing buffer three times. 100 ? of anti-HRF rabbit antibody (Bio-Rad) diluted in a buffer (1:2000) was added to each well of the plate, which stood at room temperature for 30 minutes. The plate was washed with a washing buffer three times and with TBS once, to which HRP-conjugated anti-rabbit antibody (1:2000) was added (100 ? /well), which stood at room temperature for 30 minutes. The plate was washed with a washing buffer three times and with TBS once, to which […] (PIERCE), the peroxydase substrate solution, was added (100 ? /well). Color development was measured at 450 nm and 570 nm using an ELISA reader (Bio-Rad), and affinity was determined by the difference.

Assay [4] concerns HRF. In words: Phage clone ELISA for binding to immobilized HRF. Particulars: wells coated with HRF or BSA (control). The procedure: Particularly, HRF was dissolved in a coating buffer (0.1 M NaHCO 3, pH 8.6) at the concentration of 20 μg/ml, which was loaded in a polystyrene microtiter plate (50 ? /well), followed by coating at 4° C. for overnight and blocking non-specific binding with BSA. The plate was washed with 0.1% Tween/TBS (TBST) 6 times. […] The plate stood at room temperature for 1 hour. TBST was added thereto, and the plate stood for 5 minutes, followed by washing. The washing was performed once after one round of panning, 5 times after 2 and 3 rounds of panning, and 10 times after 4 rounds of panning. 50 ? of glycine/HCl buffer (pH 2.2) was added thereto, which stood for 5 minutes. Then, phages were eluted, and then neutralization was induced with 8 ? of 1 M Tris-HCl (pH 9.1). The eluted phage solution was added to 20 ? of ER2537 culture medium (OD600=0.5˜1), followed by culture in a 37° C. shaking incubator (rpm=200) for 2 hours. 100 ? of SB medium was added thereto, followed by culture for overnight with shaking (250 rpm). The culture solution was centrifuged at 10,000 rpm (4° C.) for 15 minutes. 100 ? of the obtained supernatant was added with 30 ? of 5×PEG/NaCl (20% PEG(w/v), 15% NaCl (w/v)), followed by dissolving for 5 minutes. The mixture was then left in ice for 30 minutes. The mixture was centrifuged at 10,000 rpm (4° C.) for 20 minutes and the supernatant was discarded. The obtained pellet was suspended in 1 ? of 3% BSA/TBS. After performing centrifugation at 14,000 rpm for 5 minutes, the supernatant was obtained and used for panning. Affinity purification and phage replication were repeated 4 times, followed by eluting phages. Each phage clone was obtained from the proper plate of the eluted phage, followed by ELISA. Those phage clones showing a specific affinity to HRF were separated, followed by sequencing to confirm the peptide sequence. Those phage display peptides showing dominant binding to HRF were selected and listed below:
That is, each phage plaque was added to 1 ? of the ER2537 culture medium (OD600=0.5˜1) cultured in SB medium, followed by culture in a 37° C. incubator (rpm=250) for 5 hours. 100 ? of each culture solution was added to 900 ? of SB medium, followed by culture for overnight. […]
Each phage solution separated above was diluted in an equal volume of 6% BSA/PBS, and 50 ? of the diluted solution was added to each well of the plastic well plate coated with HRF or BSA (control), which stood for 2 hours. […] After adding peroxidase substrate solution thereto (100 ? /well), OD405 was measured with an ELISA reader.
HRF was diluted serially by ⅕ fold each from the concentration of 20 μg/ ? […] The phage 2 solution diluted serially by ⅕ fold each (½, 1/10, 1/50, 1/250, and 1/1250 of the stock solution) was added thereto, followed by ELISA and OD405 was measured.

Assay [5] relates to HRF. Description: HRF binding affinity of heptamer peptides by ELISA (alanine scan of p2). Particulars: p2 and its substituted heptamers m1-m7. An excerpt:
In order to confirm the residues involved in the HRF binding affinity of the heptamer peptide of the present invention, the amino acid sequence of p2 was substituted with alanine (A), and only m5 was substituted with lysine (K). As a result, the following sequences were established: […]

The next assay concerns the target T1, Del-N11dTCTP (Rattus norvegicus, UniProt P63029).
T1 construct: made in house
T1 sequence (P63029 11-172 limits assumed): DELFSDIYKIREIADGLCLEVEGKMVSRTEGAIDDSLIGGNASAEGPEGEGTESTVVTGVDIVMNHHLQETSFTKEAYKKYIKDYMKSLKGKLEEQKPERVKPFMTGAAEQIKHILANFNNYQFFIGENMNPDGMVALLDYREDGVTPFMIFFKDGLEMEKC
In words: Inhibition of Del-N11dTCTP-induced IL-8 secretion by domain peptides in BEAS-2B cells. In kind it is cell-based. The conditions noted are these: Del-N11dTCTP 70 nM, peptide molar ratios 0~1, 24 hours, ELISA. The procedure: To investigate inhibitory effect of FL domain, Helix 2 domain, and Helix 3 domain on Del-N11dTCTP, the inventors synthesized FL domain (Ac-[…]-NH2) (SEQ. ID. NO: 1), Helix 2 domain (Ac-[…]-NH2) (SEQ. ID. NO: 11), and Helix 3 domain (Ac-[…]-NH2) (SEQ. ID. NO: 22) by using the synthetic peptides prepared with NH2-terminal acetylation and COOH-terminal amidation, followed by purification.
Particularly, BEAS-2B cells were treated with Del-N11dTCTP (70 nM) by the same manner as described in Experimental Example 1. At this time, the synthesized FL domain, Helix 2 domain, and Helix 3 domain were treated to the cells at different molar ratios (0˜1), followed by reaction for 30 minutes. Then, Del-N11dTCTP was added thereto. 24 hours later, the supernatant was obtained and the released IL-8 was quantified by ELISA.

Consider “f-TCTP: full-length TCTP, monomer form (SEQ. ID. NO: 17)”, for which the “secretion of IL-8” value in the assay on BEAS-2B cells [1] is “Del-N11dTCTP was superior to f-TCTP and Δ-dTCTP”. Moreover, in the assay on BEAS-2B cells [2], the “secretion of GM-CSF” value is “Del-N11dTCTP was superior to f-TCTP and Δ-dTCTP”. The “affinity to dTBP2” value in assay [3] was “Del-N11dTCTP had higher dTBP2 affinity than f-TCTP and Δ-dTCTP”.

In the case of “WEFPGWM (IgE-dependent histamine-releasing factor binding peptide3) [ph4, ID; NO: 25]”, in the assay on HRF [4], the “binding of phage clone to HRF (ELISA, OD405)” value is listed as “specifically bind to HRF”.

Regarding WYVYPSA [m7], the “HRF binding affinity (rank order)” value in the assay on HRF [5] is recorded as “p2, m6>m7>m3>m2>fm5>M1>m4”.

As for AYVYPSM [m1], the “HRF binding affinity (rank order)” value with HRF [5] is on record as “p2, m6>m7>m3>m2>fm5>M1>m4”.

“LVTYPLP (IgE-dependent histamine-releasing factor binding peptide) [ph1, ID; NO: 23]”: the “binding of phage clone to HRF (ELISA, OD405)” value in the assay with HRF [4] is listed as “specifically bind to HRF”.

With WYVYKSM [m5], the “HRF binding affinity (rank order)” value with HRF [5] is “p2, m6>m7>m3>m2>fm5>M1>m4”.

On to WYVAPSM [m4], for which the “HRF binding affinity (rank order)” value with HRF [5] is reported as “p2, m6>m7>m3>m2>fm5>M1>m4”.

Regarding WAVYPSM [m2], the “HRF binding affinity (rank order)” value with HRF [5] is given as “p2, m6>m7>m3>m2>fm5>M1>m4”.

For the molecule WYAYPSM [m3], the “HRF binding affinity (rank order)” value in the assay on HRF [5] is “p2, m6>m7>m3>m2>fm5>M1>m4”.

With WYVYPAM [m6], the “HRF binding affinity (rank order)” value with HRF [5] is given as “p2, m6>m7>m3>m2>fm5>M1>m4”.

With “Ac-KPERVKPFMTGAAEQIKHILANFN-NH2 [Helix 3 domain, ID; NO: 22]”, in the assay with Del-N11dTCTP, the “inhibition of IL-8 secretion induced by Del-N11dTCTP” value is “inhibited more strongly by FL domain and Helix 2 domain than by Helix 3 domain”.

B1: Δ-dTCTP: dimer form of FL domain-deleted TCTP (protein)
chain: MIIYRDLISHDEMFSDIYKIREIADGLCLEVEGKMVSGGITGVDIVMNHHLQETSFTKEAYKKYIKDYMKSIKGKLEEQRPERVKPFMTGAAEQIKHILANFKNYQFFIGENMNPDGMVALLDYREDGVTPYMIFFKDGLEMEKCLEHHHHHH
For B1, the “secretion of IL-8” value was “Del-N11dTCTP was superior to f-TCTP and Δ-dTCTP” with BEAS-2B cells [1]; “could not induce IL-8 secretion” in the assay on BEAS-2B cells [1] (listed as A-dTCTP). In addition, in the assay with BEAS-2B cells [2], the “secretion of GM-CSF” value is “Del-N11dTCTP was superior to f-TCTP and Δ-dTCTP”. The “affinity to dTBP2” value in assay [3] was “low affinity; also recorded: Del-N11dTCTP had higher dTBP2 affinity than f-TCTP and Δ-dTCTP”.
